The species entered for test [1] is Homo sapiens. The test can be described thus: Induction of apoptosis in HFLS isolated from rheumatoid arthritis patients by TUNEL assay. Type of test: functional.
Test [2] is filed under the species Homo sapiens. Nature of the test: Growth inhibition of HFLS isolated from rheumatoid arthritis patients after 48 hrs by WST-1 assay. Type of test: functional. On the technique in general: Formazan colour is commonly taken as a measure of viable cells.
Test [3] can be described thus: Induction of apoptosis in HFLS isolated from rheumatoid arthritis patients after 24 hrs using propidium iodide staining by flow cytometry relative to DNA content. Format: functional, Homo sapiens.
The next test has as its system Mus musculus. The test can be described thus: Antiarthritic activity in SKG mouse expressing human rheumatoid arthritis invasion of inflammatory cells assessed as reduction of laminarin-induced joint swelling at 135 mg/kg, iv administered 14 days after laminarin challenge every 2 days for 36 weeks. Format: functional, organism-based. The arrangement: dose 135 mg/kg.

SMILES strings stand for the structures. Calls of active or inactive are those of the source. The calls are words filed in the database; no cut-off is given here.

We go through three molecules from ChEMBL document CHEMBL1641549, “Inhibitory effects of hybrid liposomes on the growth of synoviocyte causing rheumatoid arthritis” (2011).

In the case of `CCCCCCCCCCCCOCCOCCOCCOCCOCCOCCOCCOCCOCCOCCOCCOCCOCCOCCOCCOCCOCCOCCOCCOCCOCCO`, in the test listed under Homo sapiens [1], the result was Active. The “growth inhibition (GI)” value in the test listed under Homo sapiens [2] is “Active”. This molecule also came in with an Activity in test [3] of 20.9%.
Turning to `CCCCCCCCCCCCOCCOCCOCCOCCOCCOCCOCCOCCOCCOCCOCCOCCOCCOCCOCCOCCOCCOCCOCCOCCOCCOCCOCCO`, the result in the test listed under Homo sapiens [1] and in the test with Mus musculus was Active. In the test listed under Homo sapiens [2], the “growth inhibition (GI)” value is “Active”. In test [3], this molecule registered an Activity of 24.8%.
Take `CCCCCCCCCCCCOCCOCCOCCOCCOCCOCCOCCOCCOCCOCCOCCOCCOCCOCCOCCOCCOCCOCCOCCOCCOCCOCCOCCOCCOCCO`: the outcome in the test filed under Homo sapiens [1] was Active. The “growth inhibition (GI)” value in the test filed under Homo sapiens [2] was “Active”. The molecule further displayed an Activity in test [3] of 21.2%.
